This note sets out measurements from BindingDB's records for PubMed 11259544 (Florida State University, 2001).

The Ki is the equilibrium dissociation constant of an inhibitor or competing ligand from its target. Read a high Ki as weaker binding.

The target in this test is Cannabinoid receptor 1 (Taeniopygia guttata, UniProt P56971).
Sequence of Cannabinoid receptor 1 (P56971 whole entry): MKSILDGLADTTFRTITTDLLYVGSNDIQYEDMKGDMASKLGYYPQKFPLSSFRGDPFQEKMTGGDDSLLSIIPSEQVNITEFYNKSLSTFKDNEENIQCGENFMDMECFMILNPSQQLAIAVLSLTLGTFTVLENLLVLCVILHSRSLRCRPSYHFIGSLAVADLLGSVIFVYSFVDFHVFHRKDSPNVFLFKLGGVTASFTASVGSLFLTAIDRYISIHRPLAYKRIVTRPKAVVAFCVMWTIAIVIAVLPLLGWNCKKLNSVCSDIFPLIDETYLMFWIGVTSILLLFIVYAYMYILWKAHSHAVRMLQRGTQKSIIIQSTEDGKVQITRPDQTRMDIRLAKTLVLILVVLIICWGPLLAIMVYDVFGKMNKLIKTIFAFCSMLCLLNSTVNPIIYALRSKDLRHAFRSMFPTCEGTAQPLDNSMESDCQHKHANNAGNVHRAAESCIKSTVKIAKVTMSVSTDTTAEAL
`CCCCC/C=C\C/C=C\C/C=C\C/C=C\CCCC(=O)NC(C)CO` (configuration not stated) displayed a Ki of 166 nM. The figure for `CCCCC/C=C\C/C=C\C/C=C\C/C=C\CCCCCC(=O)NCCO` is 2790 nM; for `CCCCCCC(C)(C)c1cc(O)c2c(c1)OC(C)(C)[C@@H]1CC=C(CO)CC21` (stereo partly drawn) [(R)-3-(1,1-Dimethyl-heptyl)-9-hydroxymethyl-6,6-dimethyl-6a,7,10,10a-tetrahydro-6H-benzo[c]chromen-1-ol] it is 2.32 nM. As for `CCCCCCC(C)(C)c1ccc([C@H]2C[C@@H](O)CC[C@@H]2CCCO)c(O)c1` [CP-56667 [(+)-AC],XV], the figure is 5.92 nM; as for `CC(=O)Oc1cc(OC(C)CCCc2ccccc2)cc2c1C1CC(O)CCC1C(C)N2` (configuration not stated) [NSC_107822], 8.24 nM. As to `Cc1c(C(=O)NN2CCCCC2)nn(-c2ccc(Cl)cc2Cl)c1-c1ccc(Cl)cc1` [SR141716], the affinity corresponds to a Ki of 89.3 nM. The figure for `Cc1c(C(=O)c2cccc3ccccc23)c2cccc3c2n1[C@H](CN1CCOCC1)CO3` [WIN55212-2] is 63.3 nM.
